Experimental data: article PMC7181634, “Enhanced succinic acid production by Mannheimia employing optimal malate dehydrogenase” (Nature Communications, 2020)

Key:
MsMDH = molecular target: T1, MsMDH ([Mannheimia] succiniciproducens, UniProt Q65T37); assay: NADH oxidation at […] nm; modified Briggs-Haldane fit; assay type: biochemical; conditions: pH 7.0, 0.1 M Tris-HCl, NADH co-substrate, room temperature; uncompetitive substrate inhibition
T1 construct: gene mdh; full length, C-terminal 6xHis (pET30a), expressed in E. coli BL21(DE3), Ni-NTA, ion exchange and size exclusion
T1 sequence (Q65T37 1-312): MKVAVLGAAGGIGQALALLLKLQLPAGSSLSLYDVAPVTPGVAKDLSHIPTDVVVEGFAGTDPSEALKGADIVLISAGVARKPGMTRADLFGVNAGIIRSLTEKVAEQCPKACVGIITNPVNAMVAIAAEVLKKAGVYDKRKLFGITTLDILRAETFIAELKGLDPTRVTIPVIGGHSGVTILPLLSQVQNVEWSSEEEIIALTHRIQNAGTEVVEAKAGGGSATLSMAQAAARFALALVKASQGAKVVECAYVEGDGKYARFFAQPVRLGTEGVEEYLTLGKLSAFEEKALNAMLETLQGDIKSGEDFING

CgMDH = molecular target: T2, CgMDH (Corynebacterium glutamicum, UniProt Q8NN33); assay: as above; assay type: biochemical; conditions: pH 7.0, 0.1 M Tris-HCl, NADH co-substrate, room temperature; substrate inhibition
T2 construct: gene mdh; full length, C-terminal 6xHis (pET30a), expressed in E. coli BL21(DE3), Ni-NTA, ion exchange and size exclusion
T2 sequence (Q8NN33 whole entry): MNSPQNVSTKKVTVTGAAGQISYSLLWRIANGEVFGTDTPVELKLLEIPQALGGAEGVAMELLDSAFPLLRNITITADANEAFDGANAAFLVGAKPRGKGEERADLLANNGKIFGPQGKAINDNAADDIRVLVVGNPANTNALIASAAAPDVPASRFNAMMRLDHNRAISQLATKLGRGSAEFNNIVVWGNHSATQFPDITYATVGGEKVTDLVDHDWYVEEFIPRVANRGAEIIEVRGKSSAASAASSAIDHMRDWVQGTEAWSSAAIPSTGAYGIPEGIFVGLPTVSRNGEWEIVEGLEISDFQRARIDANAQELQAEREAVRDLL

Question: For `O=C(O)CC(=O)C(=O)O` [oxaloacetate], which “MsMDH / ki” value (MsMDH) is on record?
Answer: The value was 47.3 ± 22.1 µM.

Question: And the “CgMDH / ki” value (CgMDH)?
Answer: Its value is 500.0 ± 114.1 µM.
